Results reported in ChEMBL document CHEMBL4184318, “Identification of Fast-Acting 2,6-Disubstituted Imidazopyridines That Are Efficacious in the in Vivo Humanized Plasmodium falciparum NODscidIL2Rγ null Mouse Model of Malaria” (J Med Chem, 2018).
Values after ≈ are worked out from the molar mass of the structure shown.

Columns and labels:
[1] = Drug metabolism in po dosed BALB/c mouse plasma assessed as oxidation of pyridine ring by LC-MS/MS method; assay type: ADME, organism-based; details: in vivo
[2] = Kinetic solubility of the compound in phosphate buffered saline at pH 6.5 after 20 hrs by shake flask method; assay type: physicochemical; details: read-out: Kinetic_solubility
[3] = Kinetic solubility of the compound in HCl at pH 2 after 20 hrs by shake flask method; assay type: physicochemical; details: read-out: Kinetic_solubility
[4] = Drug metabolism in po dosed BALB/c mouse plasma assessed as sulfation of pyridine ring by LC-MS/MS method; assay type: ADME, organism-based; details: in vivo
[5] = Drug metabolism in po dosed BALB/c mouse plasma assessed as glucuronidation of pyridine ring by LC-MS/MS method; assay type: ADME, organism-based; details: in vivo
[6] = Drug metabolism in iv or po dosed BALB/c mouse plasma assessed as oxidation of cyclopentane ring by LC-MS/MS method; assay type: ADME, organism-based; details: in vivo
[7] = Kinetic solubility of the compound in FaSSIF at pH 6.5 after 20 hrs by shake flask method; assay type: physicochemical; details: read-out: Kinetic_solubility
[8] = Drug metabolism in iv or po dosed BALB/c mouse plasma assessed as oxidation and dehydrogenation of cyclopentane ring by LC-MS/MS method; assay type: ADME, organism-based; details: in vivo
[9] = Drug metabolism in iv or po dosed BALB/c mouse plasma assessed as dioxidation of cyclopentane ring by LC-MS/MS method; assay type: ADME, organism-based; details: in vivo

Drug metabolism [1] | solubility kinetic at 20 h [2] [µM] | solubility kinetic at 20 h [3] [µM] | Drug metabolism [4] | Drug metabolism [5] | Drug metabolism [6] | solubility kinetic at 20 h [7] [µM] | Drug metabolism [8] | Drug metabolism [9] | SMILES
Metabolite_Detected | < 5 | 21 (≈ 7.46 µg/mL) | Metabolite_Detected | Metabolite_Detected | – | – | – | – | FC(F)(F)c1cccc(-c2nc3cnc(Nc4ccccn4)cc3[nH]2)c1
– | 145 (≈ 50.4 µg/mL) | 132 (≈ 45.8 µg/mL) | – | – | Metabolite_Detected | 85 (≈ 29.5 µg/mL) | Metabolite_Detected | Metabolite_Detected | FC(F)(F)c1ccc(Nc2cc3[nH]c(C4CCCC4)nc3cn2)nc1
